pIC50: −log10 of the molar value. Non-standard residues stand in square brackets, D forms with d. Residues, ends and D or L forms follow the SMILES beside them. No end group written: not given here. *: point of attachment. 4Abz = Nc1ccc(C(=O)O)cc1; NHOH = ON*
Assays:
platelets = test: Collagen-dependent aggregation of gel-filtered human platelets (light transmittance); assay type: cell-based; conditions: 5 μg/ml collagen; 1,10-PA 100 μM, MMP-200 200 nM, FN-439 3 μM, RWJ-56110 1 μM, PAR1 Ab 75 μg/ml, pepducins 3 μM, PPACK 200 μM, hirudin 1 U/ml
Procedure: Platelet pellets and their supernatants were prepared as follows. […] following established informed consent procedures. […] Alternatively, whole blood was obtained from Hartley Sprague guinea pigs (drawn from the vena cava) into 3% citrate plus 10 U/ml heparin. Washed platelets from the guinea pigs were prepared in PIPES buffer. Platelet aggregation was measured with a Chronolog 560VS/490-2D aggregometer using modified PIPES buffer as a blank. Samples were incubated for 5 min in the presence of inhibitors and 1.8 mM CaCl2 prior to addition of agonist. All reactions were in final volumes of 250 μl at 37° C. while stirring at 900 rpm.
The effect of pharmacologic blockage of metalloproteases or PAR1 on collagen-dependent platelet aggregation was then tested (see FIG. 5). Gel-filtered platelets from healthy individuals (supplemented with 0.3 mg/ml fibrinogen) were challenged with 5 μg/ml collagen in the presence or absence (0.2% DMSO vehicle) of the indicated inhibitors and allowed to stir at 900 rpm in an aggregometer cuvette (250 μL) at 37° C.
In FIG. 5A, platelet aggregation was monitored by light transmittance.

PAR1 [1] = test: P1pal-7 ammonium acetate salt: IC50 and PAR1 specificity (test not described); conditions: ammonium acetate salt of P1pal-7 in 100% water
MMP-1 [2] = target: T1, MMP-1 (Homo sapiens, UniProt P03956); test: Collagenase (active MMP-1) activity of collagen-stimulated human platelets, DQ collagen I fluorogenic substrate; assay type: biochemical; parameters: endogenous in cells; host or cells: human platelets from healthy donors, stimulated with collagen, ADP or U-46619; conditions: 3 μM FN-439 or 20 μg/ml blocking Ab; platelets treated with 20 μg/ml collagen
T1 sequence (P03956 100-469): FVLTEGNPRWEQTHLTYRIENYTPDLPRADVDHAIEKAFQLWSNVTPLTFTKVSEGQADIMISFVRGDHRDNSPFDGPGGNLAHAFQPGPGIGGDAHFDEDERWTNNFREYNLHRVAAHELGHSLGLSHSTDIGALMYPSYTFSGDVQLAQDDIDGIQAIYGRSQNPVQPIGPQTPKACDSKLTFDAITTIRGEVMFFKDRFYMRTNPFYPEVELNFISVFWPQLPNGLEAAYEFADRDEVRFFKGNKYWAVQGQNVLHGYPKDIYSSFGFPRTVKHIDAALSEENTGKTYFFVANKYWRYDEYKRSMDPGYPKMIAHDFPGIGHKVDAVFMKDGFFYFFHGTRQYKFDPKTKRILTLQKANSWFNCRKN
Procedure: The enzymatic activity of active MMP-1 in supernatants and platelet lysates was then determined. Human or guinea pig platelets from PRP were concentrated four-fold by centrifugation at 700 g for 25 min at room temperature, and then resuspended in 0.25 volume of PIPES containing 1 mM EDTA (final platelet count was 10^9/mL). Platelets were treated with PBS (buffer), 20 μM ADP, 20 μM U-46619, or 20 μg/ml collagen in the presence of 2.5 mM CaCl2. The platelets were incubated for 15 min at 37° C. with occasional gentle mixing. Platelets were collected by centrifugation at 10,000 g for 5 min at 4° C. and resuspended in lysis buffer (50 mM Tris HCl, 100 mM NaCl, 1 mM NaF, 5 mM EDTA, 0.1% (v/v) Triton X-100, 100 μM PMSF, pH 7.4) and then sheared with a 27 gauge needle.
The enzymatic activity of active MMP-1 in supernatants and platelet lysates was measured using DQ collagen I (Molecular Probes) as fluorogenic substrate and reporter of collagenase activity substrate (Boire et al., 2005) in the presence or absence of 3 μM FN-439, or 20 μg/ml each of control IgG, MMP-1 blocking Ab, MMP-8 blocking Ab or MMP-13 blocking Ab (preincubated for 2 h at 37° C.), as indicated with APMA-activated MMP-1 serving as control (FIG. 1A, striped bars). […]

MMP-1 [3] = target: T1, MMP-1; conditions: cited from earlier work
PAR1 [4] = test: Release of PAR1 N-terminal cleavage peptide from gel-filtered platelets (dot blot, IIaR-A antibody); assay type: cell-based, human
From the text: To further understand how collagen is able to activate significant amounts of endogenous MMP-1 collagenase activity on the surface of platelets, experiments were devised to determine if PAR-1 is cleaved in either an autocrine or paracrine manner following exposure to collagen. Using a monoclonal antibody raised against the amino-terminal thrombin-cleavage peptide region of PAR1, residues 32-46 (Loew et al., 2000), the relative abilities of thrombin, MMP-1 and collagen to cause cleavage of platelet PAR1 was assessed. Gel filtered platelets were treated for 10 min with thrombin (3 nM), MMP-1 (3 nM), collagen (5 μg/ml), in the presence or absence (PBS buffer) of 0.00013 U hirudin or 5 μM FN-439 at 37° C. Supernatants were concentrated 20-fold and applied to nitrocellulose membranes, then probed with the IIaR-A monoclonal antibody. The PAR1 N-terminal thrombin deavage peptide (A26-R41) and PAR1 flexible linker peptide (N-acetyl-T67-L84 -C) (Kuliopulos et al., 1999) served as positive and negative controls (100 ng), respectively.
These platelets were then stimulated with collagen (5 μg/ml) for 10 min. at 37° C. Supernatants were concentrated 20-fold and applied to nitrocellulose membranes, then probed with the IIaR-A monoclonal antibody. […] FN-439, or an MMP1-blocking antibody (20 μg/ml) but not by thrombin inhibitor, hirudin (see FIG. 1E, FIG. 1G).

Compound	inhibition (loss) of collagen-induced platelet aggregation (platelets)	specificity for PAR1 (PAR1 [1])	inhibition of platelet collagenase activity released by collagen (cleavage of fluorogenic collagen substrate) (MMP-1 [2])	pIC50 (MMP-1 [3])	block of MMP-1-induced release of N-terminal cleavage peptide of PAR1 (PAR1 [4]; 3 nM MMP-1, 5 μM FN-439)	block of collagen-induced release of PAR1 N-terminal peptide (PAR1 [4]; 5 μg/ml collagen, 10 min, 37° C., Ab 20 μg/ml, ARC 0.5 μM, ASA 1 mM)
P1pal-7: PAR1 i3 loop pepducin lipopeptide, KKSRALF (SEQ ID NO. 2), palmitate (also: palmitate, site not given here)	identical levels of inhibition as blocking MMP-1	retains specificity for PAR1				
CC(C)C[C@@H](NC(=O)[C@@H]1CCCN1C(=O)CNC(=O)c1ccc(N)cc1)C(=O)N[C@H](C)C(=O)NO [FN-439] (H-[4Abz]GP[dL][dA]-{NHOH})			completely blocked	6.00	blocked	specifically blocked

From US9376499B2, “PAR-1 activation by metalloproteinase-1 (MMP-1)” (Tufts Medical Center, Inc., priority 2009, dated 2016)
